For data set [1], the target named is T1, human SNAP-GLP-1R (HEK293-SNAP-GLP-1R cells) (Homo sapiens, UniProt P43220).
T1 construct: expressed in transfected cells
The experiment in a line: Time-resolved FRET kinetic competition binding vs exendin(9-39)-FITC. On the procedure: (§1) For in vitro data, the average of within‐assay replicates was counted as one biological replicate. For kinetic binding assays, rate constants for association and dissociation of the unlabelled ligands were calculated using the “kinetics of competition binding” algorithm in PRISM 8 (GraphPad Software), using values for exendin(9‐39)‐FITC determined in the same experiment. Functional concentration response data were fitted using three‐parameter logistic fitting (PRISM 8), with constraints applied where appropriate. Pharmacokinetic analysis was performed using Phoenix® Win‐Nonlin® (Version 8.0). Statistical comparisons were performed using Student's t‐test or one‐way ANOVA, as appropriate. Paired or matched analyses were performed where permitted by the experimental design. Specific post hoc tests are indicated in the legends. Statistical significance was assigned where P < 0.05. Data are represented as mean ± standard error of the mean (SEM) throughout, with individual replicates indicated where possible.

In data set [2] the target is T2, GLP-1R (PathHunter CHO-K1-βarr2-EA-GLP-1R cells) (Homo sapiens, UniProt P43220).
T2 construct: host or cells: CHO-K1 (PathHunter, co-expressing β-arrestin-2-EA)
T2 sequence (P43220 24-463): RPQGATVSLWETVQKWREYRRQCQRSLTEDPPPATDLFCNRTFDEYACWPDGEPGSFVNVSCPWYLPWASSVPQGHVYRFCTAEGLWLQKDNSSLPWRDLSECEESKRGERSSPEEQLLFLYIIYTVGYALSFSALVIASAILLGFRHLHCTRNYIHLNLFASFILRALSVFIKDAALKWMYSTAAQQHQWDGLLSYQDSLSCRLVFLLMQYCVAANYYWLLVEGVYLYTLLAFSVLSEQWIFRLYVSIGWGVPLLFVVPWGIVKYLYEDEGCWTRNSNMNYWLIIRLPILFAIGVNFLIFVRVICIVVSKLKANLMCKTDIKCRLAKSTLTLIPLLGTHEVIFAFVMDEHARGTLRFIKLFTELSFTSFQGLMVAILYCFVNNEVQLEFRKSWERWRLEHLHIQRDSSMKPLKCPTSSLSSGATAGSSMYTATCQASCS
Put plainly: PathHunter β-arrestin-2 recruitment assay. It is filed as cell-based. The protocol:
PathHunter CHO‐K1‐βarr2‐EA‐GLP‐1R cells were stimulated with agonist for 30 minutes at 37°C in Ham's F12 medium without FBS. At the end of the incubation period, cells were lysed by addition of PathHunter detection reagents and luminescent signal was subsequently recorded from each well.
(Activated receptors often draw arrestin, which recruitment assays turn into a signal.)

For data set [3], the system named is HFHS diet-fed C57BL6/J mice. The experiment in a line: Study in high-fat, high-sucrose diet-fed mice. It is filed as in vivo, mouse. The following applies: end of study, n = 3. On the procedure: Male C57BL6/J mice were purchased from Charles River (UK). The mice were housed in a pathogen‐free facility with a 12‐hour light/12‐hour dark cycle. From the age of 8 weeks they were put on a 58 kcal % fat and sucrose diet (D12331; Research Diets Inc., New Brunswick, New Jersey) for 8 weeks to induce obesity and glucose intolerance. […] Body weight was monitored at regular intervals. For glucose tolerance testing, mice were fasted overnight (total 16 hours) and given free access to water. At 9:00 AM, glucose (3 g/kg body weight) was administered via intraperitoneal injection or oral gavage. Blood was sampled from the tail vein at 0, 5, 15, 30, 60 and 90 minutes after glucose administration. Blood glucose was measured with an automatic glucometer (Accuchek; Roche, Burgess Hill, UK). To quantify circulating insulin, 10 μL blood was collected from the tail vein into heparin‐coated tubes (Sarstedt, Beaumont Leys, UK). Plasma was separated by sedimentation at 10 000g for 10 minutes at 4°C. Plasma insulin levels were measured in 5‐μL aliquots by ELISA kits from Crystal Chem (Elk Grove Village, Illinois). At the end of the study, pancreata were isolated and processed for immunohistochemistry.

For data set [4], the target named is T1, human SNAP-GLP-1R (HEK293-SNAP-GLP-1R cells). The experiment in a line: cAMP assay (HTRF) in HEK293-SNAP-GLP-1R cells. It counts as cell-based. On the procedure: HEK293‐SNAP‐GLP‐1R cells were stimulated with agonist for 30 minutes at 37°C, either in serum‐free media (SFM) or SFM supplemented with 2% human serum albumin (HSA; Sigma Aldrich, Poole, UK). cAMP was determined at the end of the incubation period by homogenous time‐resolved fluorescence (HTRF; cAMP Dynamic 2 kit; Cisbio) using a Spectramax i3x plate reader (Molecular Devices, Wokingham, UK).
For in vitro data, the average of within‐assay replicates was counted as one biological replicate. For kinetic binding assays, rate constants for association and dissociation of the unlabelled ligands were calculated using the “kinetics of competition binding” algorithm in PRISM 8 (GraphPad Software), using values for exendin(9‐39)‐FITC determined in the same experiment. Functional concentration response data were fitted using three‐parameter logistic fitting (PRISM 8), with constraints applied where appropriate. Pharmacokinetic analysis was performed using Phoenix® Win‐Nonlin® (Version 8.0). Statistical comparisons were performed using Student's t‐test or one‐way ANOVA, as appropriate. Paired or matched analyses were performed where permitted by the experimental design. Specific post hoc tests are indicated in the legends. Statistical significance was assigned where P < 0.05. […]
(cAMP levels reflect the balance of adenylyl cyclase and phosphodiesterase activity.)

Data set [5] can be described thus: Plasma pharmacokinetic study in CD-1 mice. It counts as in vivo, mouse. The following applies: male CD-1 mice, single s.c. 1 mg/kg, LC-MS/MS, n = 5 per timepoint. On the procedure: A plasma pharmacokinetic study of GL0034 was performed in male CD‐1 Mice (6‐9 weeks of age; 30‐50 g body weight) procured from the Laboratory Animal Resources Department of Sun Pharma Advanced Research Company Ltd (www.sparc.life, a subsidiary of Sun Pharma Industries Ltd.). For full details see Supplementary Methods.
as §1
Animals (n=45) were procured from Laboratory Animal Resources Dept. of Sun Pharma Advanced Research Company Ltd. (www.sparc.life, a subsidiary of Sun Pharma Industries Ltd.). Animals were acclimatized for one day. On day 0, each animal was weighed. Animals were divided into 9 groups, each group containing 5 male animals (one group representing one time-point). All the animals were injected subcutaneously at a dose of 1 mg/kg (dose volume: 10 ml/kg) using 26½ gauge needle attached to an appropriately graduated syringe. At 1, 2, 4, 8, 12, 24, 48, 72 and 96 hours after injection, ~500 µL of blood was collected from mice by retro-orbital plexus puncture using capillary micro-centrifuge tubes containing anticoagulant (15 µL of 10% K2EDTA per tube). Plasma was separated from the collected blood samples by centrifugation at ~3300 rpm (1985 g) for 10 min at 4°C ± 2°C. GL0034 concentrations were estimated using liquid chromatography with tandem mass spectrometry (LCMS-MS). Lower limit of quantitation (LLOQ) for GL0034 was 50 ng/mL.

In data set [6] the target is human serum albumin (human) (UniProt P02768).
Data set [7] has as its target human SNAP-GLP-1R (glucagon-like peptide-1 receptor) on HEK293 cells (human, UniProt P43220 24-463, SNAP tag labelled with SNAP-Lumi4-Tb). Put plainly: cell-based or functional assay.

Where no end group is shown, it is not given here. [ ]: non-standard residue; d: D form. Aib = CC(C)(N)C(=O)O

T1 sequence (P43220 24-463): as above
human SNAP-GLP-1R (glucagon-like peptide-1 receptor) on HEK293 cells, sequence (P43220 24-463): as above

Turning to `CC[C@H](C)[C@H](NC(=O)[C@H](Cc1ccccc1)NC(=O)[C@H](CCC(=O)O)NC(=O)[C@H](CCCCNC(=O)COCCOCCNC(=O)C(C)(C)NC(=O)CC[C@H](NC(=O)CCCCCCCCCCCCCCCCC(=O)O)C(=O)O)NC(=O)[C@H](C)NC(=O)[C@H](C)NC(=O)[C@H](CCC(N)=O)NC(=O)CNC(=O)[C@H](CCC(=O)O)NC(=O)[C@H](CC(C)C)NC(=O)[C@H](Cc1ccc(O)cc1)NC(=O)[C@H](CO)NC(=O)[C@H](CO)NC(=O)[C@@H](NC(=O)[C@H](CC(=O)O)NC(=O)[C@H](CO)NC(=O)[C@@H](NC(=O)[C@H](Cc1ccccc1)NC(=O)[C@@H](NC(=O)CNC(=O)[C@H](CCC(=O)O)NC(=O)C(C)(C)NC(=O)[C@@H](N)Cc1c[nH]cn1)[C@@H](C)O)[C@@H](C)O)C(C)C)C(=O)N[C@@H](C)C(=O)N[C@@H](Cc1c[nH]c2ccccc12)C(=O)N[C@@H](CC(C)C)C(=O)N[C@H](C(=O)N[C@@H](CCCNC(=N)N)C(=O)NCC(=O)N[C@@H](CCCNC(=N)N)C(=O)NCC(=O)N[C@@H](CC(C)C)C(=O)O)C(C)C` [GL0034], the Kd (as a rule, the concentration at which binding is half-saturated) in data set [1] is 25.1 nM. Also, the koff (commonly the first-order rate constant of dissociation) in data set [1] (HEK293-SNAP-GLP-1R, 37°C, competition with 10 nM exendin(9-39)-FITC, estimate ± SEM, n = 4) was 0.00367 s⁻¹. For the same molecule, the Emax (as a rule, the size of the effect at its maximum, as opposed to the concentration needed) was 102 ± 1% in data set [2] (30 min, 37°C, Ham's F12 without FBS, estimate ± SEM, n = 5) and 97 ± 2% in data set [4] (30 min, 37°C, estimate ± SEM, n = 5). Moreover, the EC50 in data set [2] (read-out: βarr2 LogEC50 (converted)) is 79.4 nM; in data set [4] (read-out: cAMP LogEC50 (converted)), 0.631 nM. Besides, the Plasma amylase levels entry in data set [3] is reported as “no difference”. In data set [5], this molecule registered a Kel of 0.0906 h⁻¹. Moreover, the Cmax (usually the highest concentration seen after dosing) in data set [5] (mouse, sc) turned out to be 921 nM. The Tmax – broadly, the time from dosing to the highest level – in data set [5] (mouse, sc) is 4 h. For the same molecule, the half-life in data set [5] (mouse, sc, read-out: t1/2 (plasma half-life) (converted)) was 7.65 h.
`CC[C@H](C)[C@H](NC(=O)[C@H](Cc1ccccc1)NC(=O)[C@H](CCC(=O)O)NC(=O)[C@H](CCCCNC(=O)COCCOCCNC(=O)COCCOCCNC(=O)CC[C@H](NC(=O)CCCCCCCCCCCCCCCCC(=O)O)C(=O)O)NC(=O)[C@H](C)NC(=O)[C@H](C)NC(=O)[C@H](CCC(N)=O)NC(=O)CNC(=O)[C@H](CCC(=O)O)NC(=O)[C@H](CC(C)C)NC(=O)[C@H](Cc1ccc(O)cc1)NC(=O)[C@H](CO)NC(=O)[C@H](CO)NC(=O)[C@@H](NC(=O)[C@H](CC(=O)O)NC(=O)[C@H](CO)NC(=O)[C@@H](NC(=O)[C@H](Cc1ccccc1)NC(=O)[C@@H](NC(=O)CNC(=O)[C@H](CCC(=O)O)NC(=O)C(C)(C)NC(=O)[C@@H](N)Cc1cnc[nH]1)[C@@H](C)O)[C@@H](C)O)C(C)C)C(=O)N[C@@H](C)C(=O)N[C@@H](Cc1c[nH]c2ccccc12)C(=O)N[C@@H](CC(C)C)C(=O)N[C@H](C(=O)N[C@@H](CCCNC(=N)N)C(=O)NCC(=O)N[C@@H](CCCNC(=N)N)C(=O)NCC(=O)O)C(C)C` [Semaglutide, reference compound]: the Plasma amylase levels result in data set [3] is “no difference”.
Molecule GL0034 (peptide) displayed a ∆pEC50 of GLP-1R cAMP signalling potency with and without 2% HSA (HEK293-SNAP-GLP-1R cells) in data set [6] of 2.1.

B1: GL0034 (peptide)
chain: H[Aib]EGTFTSDVSSYLEGQAAKEFIAWLVRGRGL
modifications: not fully specified (residue 20); also: K20 linker includes Aib, structure not given here
Regarding B1, in data set [7], the “GLP-1R endocytosis (high content imaging), HEK293-SNAP-GLP-1R cells, LogEC50 (M)” value is -9.2 M (log) and the “cAMP production, HEK293-SNAP-GLP-1R cells, 30 minutes, LogEC50 (M)” value was -9.2 M (log).

The values are drawn from PMC9796023, “In vivo and in vitro characterization of GL0034, a novel long‐acting glucagon‐like peptide‐1 receptor agonist” (Diabetes, Obesity & Metabolism, 2022).
